Test results taken from US20210379012A1, “ANTIANGIOGENIC CHROMANE DERIVATIVE AND USES THEREOF” (Indiana University Research and Technology Corporation, priority 2018, published 2021).

Assays:
Type in all cases: cell-based
[1] = system: 92-1 uveal melanoma cells; assay: alamarBlue proliferation assay, 92-1; details: 48 hours' incubation
Experimental: (§1) EBM-2 and IMDM growth media were purchased from Lonza (Walkersville, Md., USA). RPMI and DMEM media were purchased from Thermo Scientific (Waltham, Mass., USA). ARPE19 cells were obtained from ATCC (Manassas, Va., USA). HRECs and Attachment Factor were purchased from Cell Systems (Kirkland, Wash., USA) and were used between passages 5 and 8. Endothelial Growth Medium (EGM-2) was prepared by mixing the contents of an EGM-2 “Bullet Kit” (Cat. no. CC-4176) with Endothelial Basal Medium (EBM) (Lonza). The EGM-2 “Bullet Kit” contains hydrocortisone, human fibroblast growth factor (hFGF), VEGF, R3-insulin like growth factor (R3-IGF-1), ascorbic acid, human epidermal growth factor (hEGF), gentamycin and heparin along with 2% fetal bovine serum (FBS). ARPE19 cells were grown in DEM medium containing 10% FBS and 1% penicillin-streptomycin (pen-strep). 92-1 cells were grown in RPMI medium containing 10% FBS and 1% pen-strep. Y79 cells were grown in RB medium (IMDM+10% FBS+55 μM β-mercaptoethanol+10 μg/mL Insulin+1% pen-strep). […]
(§2) The proliferation of cells was monitored by an alamarBlue based fluorescence assay. […] At the end of the incubation, 11.1 μL of alamarBlue reagent was added and 4 hours after, fluorescence readings were taken with excitation and emission wavelengths of 560 nm and 590 nm respectively. Data were analyzed and dose response curves generated using GraphPad Prism software (v. 6.0).

[2] = system: Y79 retinoblastoma cells; assay: alamarBlue proliferation assay, Y79; details: 48 hours' incubation
Experimental: as §1, §2

[3] = system: ARPE19 retinal pigment epithelial cells; assay: alamarBlue proliferation assay, ARPE19; details: Homo sapiens, ARPE-19, 48 hours' incubation
Experimental: as §1, §2

[4] = system: human retinal endothelial cells (HRECs); assay: alamarBlue proliferation assay, HRECs; details: HREC, 48 hours' incubation
Experimental: as §1, §2

GI50 [1]: 28 µM
GI50 [2]: 17 µM
Compound: COc1ccc(CC2COc3cc(OC)c(OC)c(OC)c3C2)cc1O (stereo not shown) [compound (1)]
GI50 [3]: > 100 µM
GI50 [4]: 0.00152 µM
